The experiment deals with T1, human PAR4 (Homo sapiens, UniProt Q96RI0).
T1 construct: expressed in transfected cells; host or cells: HEK293 PAR4 Clone 1.2A (BMS Arctic ID 383940)
T1 sequence (Q96RI0 18-385): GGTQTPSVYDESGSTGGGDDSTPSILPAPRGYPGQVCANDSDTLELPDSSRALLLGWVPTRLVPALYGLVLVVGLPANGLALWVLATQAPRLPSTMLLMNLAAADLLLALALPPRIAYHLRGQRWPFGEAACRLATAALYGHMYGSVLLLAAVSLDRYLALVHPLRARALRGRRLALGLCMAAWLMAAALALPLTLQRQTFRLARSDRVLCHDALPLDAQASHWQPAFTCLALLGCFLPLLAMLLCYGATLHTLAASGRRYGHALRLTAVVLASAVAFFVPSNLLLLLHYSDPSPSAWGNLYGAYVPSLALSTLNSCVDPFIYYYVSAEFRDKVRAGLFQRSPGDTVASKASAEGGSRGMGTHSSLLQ
Put plainly: PAR4 FLIPR assay: antagonism of agonist-peptide-induced calcium mobilization in PAR4-expressing HEK293 cells. Format: cell-based. Conditions: H-Ala-Phe(4-F)-[…]NH2-induced intracellular calcium mobilization, 11-point curves. (In general: A change in cytosolic calcium serves as a functional read-out for many receptors and channels.)

pIC50: −log10 of the molar value.

One may read the pIC50 as −log10 of the IC50, conventionally taken in molar units. On to `COc1cnc2c(-c3nc4cc(F)c(O[C@@H](C)[C@@H](C)OC(=O)Nc5ccc(N)nc5)cc4s3)cc(C)cc2n1` [Example 602, (2R,3S)-3-((5-fluoro-2-(2-methoxy-7-methylquinoxalin-5-yl)benzo[d]thiazol-6-yl)oxy)butan-2-yl (6-aminopyridin-3-yl)carbamate], for which the pIC50 is 8.19.
With `COc1cnc2c(-c3nc4cc(F)c(O[C@@H](C)[C@@H](C)OC(=O)Nc5ccc(N6CCOCC6)nc5)cc4s3)cc(C)cc2n1` [Example 603, (2R,3S)-3-((5-fluoro-2-(2-methoxy-7-methylquinoxalin-5-yl)benzo[d]thiazol-6-yl)oxy)butan-2-yl (6-morpholinopyridin-3-yl)carbamate] the figure was 8.68; with `COc1cnc2c(-c3nc4cc(F)c(O[C@@H](C)[C@@H](C)OC(=O)Nc5cnc(NC(=O)c6ccc(F)c(Cl)c6)nc5)cc4s3)cc(C)cc2n1` [Example 604, (2R,3S)-3-((5-fluoro-2-(2-methoxy-7-methylquinoxalin-5-yl)benzo[d]thiazol-6-yl)oxy)butan-2-yl (2-(3-chloro-4-fluorobenzamido)pyrimidin-5-yl)carbamate], 7.77.
Consider `COc1cnc2c(-c3nc4cc(F)c(O[C@@H](C)[C@@H](C)OC(=O)Nc5ccc(N6CCCC6)nc5)cc4s3)cc(C)cc2n1` [Example 605, (2R,3S)-3-((5-fluoro-2-(2-methoxy-7-methylquinoxalin-5-yl)benzo[d]thiazol-6-yl)oxy)butan-2-yl (6-(pyrrolidin-1-yl)pyridin-3-yl)carbamate], for which the pIC50 was 9.15.
Regarding `COc1cnc2c(-c3nc4cc(F)c(O[C@@H](C)[C@@H](C)OC(=O)Nc5cnc(NCC(C)(C)O)nc5)cc4s3)cc(C)cc2n1` [Example 606, (2R,3S)-3-((5-fluoro-2-(2-methoxy-7-methylquinoxalin-5-yl)benzo[d]thiazol-6-yl)oxy)butan-2-yl (2-((2-hydroxy-2-methylpropyl)amino)pyrimidin-5-yl)carbamate], the pIC50 is 9.40.
With `COc1cnc2c(-c3nc4cc(F)c(O[C@@H](C)[C@@H](C)OC(=O)Nc5cnc(N(C)S(C)(=O)=O)nc5)cc4s3)cc(C)cc2n1` [Example 607, (2R,3S)-3-((5-fluoro-2-(2-methoxy-7-methylquinoxalin-5-yl)benzo[d]thiazol-6-yl)oxy)butan-2-yl (2-(N-methylmethylsulfonamido)pyrimidin-5-yl)carbamate] the figure was 9.70.
Turning to `COc1cnc2c(-c3nc4cc(F)c(O[C@@H](C)[C@@H](C)OC(=O)Nc5cnc(N6CCOCC6)nc5)cc4s3)cc(C)cc2n1` [Example 608, (2R,3S)-3-((5-fluoro-2-(2-methoxy-7-methylquinoxalin-5-yl)benzo[d]thiazol-6-yl)oxy)butan-2-yl (2-morpholinopyrimidin-5-yl)carbamate], the pIC50 was 9.30.
Regarding `COc1cnc2c(-c3nc4cc(F)c(OC[C@@H](C)OC(=O)Nc5ccc(N6CCOC6=O)nc5)cc4s3)cc(C)cc2n1` [Example 609, (R)-1-((5-fluoro-2-(2-methoxy-7-methylquinoxalin-5-yl)benzo[d]thiazol-6-yl)oxy)propan-2-yl (6-(2-oxooxazolidin-3-yl)pyridin-3-yl)carbamate], the pIC50 was 8.72.
In the case of `COc1cnc2c(-c3nc4cc(F)c(OC[C@@H](C)OC(=O)Nc5ccc(NC(C)=O)nc5)cc4s3)cc(C)cc2n1` [Example 610, (R)-1-((5-fluoro-2-(2-methoxy-7-methylquinoxalin-5-yl)benzo[d]thiazol-6-yl)oxy)propan-2-yl (6-acetamidopyridin-3-yl)carbamate] it was 8.37; in that of `COc1cnc2c(-c3nc4cc(F)c(OC[C@@H](C)OC(=O)Nc5cncc(CO)c5)cc4s3)cc(C)cc2n1` [Example 611, (R)-1-((5-fluoro-2-(2-methoxy-7-methylquinoxalin-5-yl)benzo[d]thiazol-6-yl)oxy)propan-2-yl (5-(hydroxymethyl)pyridin-3-yl)carbamate], 8.68; in that of `Cc1cc(-c2nc3cc(F)c(O[C@@H](C)[C@@H](C)OC(=O)Nc4cnc(C)nc4)cc3s2)c2ncc(C(N)=O)nc2c1` [Example 613, (2R,3S)-3-((2-(2-carbamoyl-7-methylquinoxalin-5-yl)-5-fluorobenzo[d]thiazol-6-yl)oxy)butan-2-yl (2-methylpyrimidin-5-yl)carbamate], 7.19.
In the case of `CNC(=O)c1cnc2c(-c3nc4cc(F)c(O[C@@H](C)[C@@H](C)OC(=O)Nc5cnc(C)nc5)cc4s3)cc(C)cc2n1` [Example 614, (2R,3S)-3-((5-fluoro-2-(7-methyl-2-(methylcarbamoyl)quinoxalin-5-yl)benzo[d]thiazol-6-yl)oxy)butan-2-yl (2-methylpyrimidin-5-yl)carbamate] it was 7.52; in that of `Cc1cc(-c2nc3cc(F)c(O[C@@H](C)[C@@H](C)OC(=O)Nc4cnc(C)nc4)cc3s2)c2ncc(C(=O)N(C)C)nc2c1` [Example 615, (2R,3S)-3-((2-(2-(dimethylcarbamoyl)-7-methylquinoxalin-5-yl)-5-fluorobenzo[d]thiazol-6-yl)oxy)butan-2-yl (2-methylpyrimidin-5-yl)carbamate], 6.06.
With `Cc1cc(-c2nc3cc(F)c(O[C@@H](C)[C@@H](C)OC(=O)Nc4cnc(C)nc4)cc3s2)c2ncc(C(=O)NCCO)nc2c1` [Example 616, (2R,3S)-3-((5-fluoro-2-(2-((2-hydroxyethyl)carbamoyl)-7-methylquinoxalin-5-yl)benzo[d]thiazol-6-yl)oxy)butan-2-yl (2-methylpyrimidin-5-yl)carbamate] the figure was 5.38; with `COc1cnc2c(-c3nc4c(Cl)c(F)c(OCCOC(=O)Nc5ccns5)cc4s3)cc(C)cc2n1` [Example 621, 2-((4-chloro-5-fluoro-2-(2-methoxy-7-methylquinoxalin-5-yl)benzo[d]thiazol-6-yl)oxy)ethyl isothiazol-5-ylcarbamate], 8.10; with `COc1cnc2c(-c3nc4c(Cl)c(F)c(OC[C@H]5CNC(=O)O5)cc4s3)cc(C)cc2n1` [Example 622, (R)-5-(((4-chloro-5-fluoro-2-(2-methoxy-7-methylquinoxalin-5-yl)benzo[d]thiazol-6-yl)oxy)methyl)oxazolidin-2-one], 6.46.
Take `COc1cnc2c(-c3nc4c(Cl)c(F)c(OCc5coc(N)n5)cc4s3)cc(C)cc2n1` [Example 623, 4-(((4-chloro-5-fluoro-2-(2-methoxy-7-methylquinoxalin-5-yl)benzo[d]thiazol-6-yl)oxy)methyl)oxazol-2-amine]: the pIC50 is 6.49.
With `CCOc1cnc2c(-c3nc4cc(F)c(O[C@@H](C)[C@@H](C)OC(=O)Nc5cnc(CCOP(=O)(O)O)nc5)cc4s3)cc(C)cc2n1` [Example 624, (2R,3S)-3-((2-(2-ethoxy-7-methylquinoxalin-5-yl)-5-fluorobenzo[d]thiazol-6-yl)oxy)butan-2-yl (2-(2-(phosphonooxy)ethyl)pyrimidin-5-yl)carbamate] the figure was 9.15.
With `COCc1cnc2c(-c3nc4c(C)cc(OC)cc4s3)cc(Cl)cc2c1` [Example 625, 2-(6-chloro-3-(methoxymethyl)quinolin-8-yl)-6-methoxy-4-methylbenzo[d]thiazole] the figure was 8.74; with `COc1cnc2c(-c3nc4c(C)cc(OC)cc4s3)cc(Cl)cc2c1` [Example 626, 2-(6-chloro-3-methoxyquinolin-8-yl)-6-methoxy-4-methylbenzo[d]thiazole], 8.14.
In the case of `COc1cc(C(C)(C)O)c2nc(-c3cc(C)cc4nc(OC)cnc34)sc2c1` [Example 627, 2-(6-methoxy-2-(2-methoxy-7-methylquinoxalin-5-yl)benzo[d]thiazol-4-yl)propan-2-ol] it was 5.85.
Take `COCc1cnc2c(-c3nc4c(C(O)C(C)(C)C)cc(OC)cc4s3)cc(C)cc2n1` (stereo not shown) [Example 628, 1-(6-methoxy-2-(2-(methoxymethyl)-7-methylquinoxalin-5-yl)benzo[d]thiazol-4-yl)-2,2-dimethylpropan-1-ol]: the pIC50 is 8.85.
With `COc1cc(C(O)c2ccccc2)c2nc(-c3cc(C)cc4nc(OC)cnc34)sc2c1` (stereo not shown) [Example 629, (6-methoxy-2-(2-methoxy-7-methylquinoxalin-5-yl)benzo[d]thiazol-4-yl) (phenyl)methanol], the pIC50 was 8.66.
Regarding `COc1cc(C(O)C(C)(C)C)c2nc(-c3cc(C)cc4nc(OC)cnc34)sc2c1` (stereo not shown) [Example 630, 1-(6-methoxy-2-(2-methoxy-7-methylquinoxalin-5-yl)benzo[d]thiazol-4-yl)-2,2-dimethylpropan-1-ol], the pIC50 was 8.85.
In the case of `COc1cc(C(O)Cc2ccccc2)c2nc(-c3cc(C)cc4nc(OC)cnc34)sc2c1` (stereo not shown) [Example 631, 1-(6-methoxy-2-(2-methoxy-7-methylquinoxalin-5-yl)benzo[d]thiazol-4-yl)-2-phenylethanol] it was 8.28; in that of `COc1cnc2c(-c3nc4c(C(O)C(C)(C)C)c(F)c(OC)cc4s3)cc(C)cc2n1` (stereo not shown) [Example 632, 1-(5-fluoro-6-methoxy-2-(2-methoxy-7-methylquinoxalin-5-yl)benzo[d]thiazol-4-yl)-2,2-dimethylpropan-1-ol], 8.00.
For `COc1cc(C(F)C(C)(C)C)c2nc(-c3cc(C)cc4nc(OC)cnc34)sc2c1` (stereo not shown) [Example 634, 4-(1-fluoro-2,2-dimethylpropyl)-6-methoxy-2-(2-methoxy-7-methylquinoxalin-5-yl)benzo[d]thiazole], the pIC50 was 7.36.
With `COCc1cnc2c(-c3nc4c(OCc5ccccc5)cc(OC)cc4s3)cc(C)cc2n1` [Example 635, 4-(benzyloxy)-6-methoxy-2-(2-(methoxymethyl)-7-methylquinoxalin-5-yl)benzo[d]thiazole] the figure was 8.00.

(Values after patent publication US12060347B2 (BRISTOL-MYERS SQUIBB COMPANY, priority 2016, dated 2024).)
